Measured values reported in patent US9090671B2, “Macrocyclic peptides” (Scynexis, Inc., priority 2008, dated 2015).

Tests used:
[1] = test system: HCV RNA replicon ET (luc ubi neo/ET); assay: HCV RNA replicon luciferase assay in human hepatoma cell line ET; format: cell-based; details: Hepatitis C virus, 72 hours, read-out: EC50, effective concentration that reduced viral replication by 50% (HCV RNA replicon derived LUC activity)
Protocol: Representative compounds of the present invention were tested for activity against HCV using the methods adapted from those described by Kriger et al., 2001, Journal of Virology 75:4614-4624, Pietschmann et al., 2002, Journal of Virology, 76:4008-4021, and using HCV RNA constructs as described in U.S. Pat. No. 6,630,343. Compounds were examined in the human hepatoma cell line ET (lub ubi neo/ET), a HCV RNA replicon containing a stable luciferase (LUC) reporter. The HCV RNA replicon ET contains the 5′ end of HCV (with the HCV Internal Ribosome Entry Site (IRES) and the first few amino acids of the HCV core protein) which drives the production of a firefly luciferase (LUC), ubiquitin, and neomycin phosphotransferase (NeoR) fusion protein. Ubiquitin cleavage releases the LUC and NeoR proteins. The EMCV IRES element controls the translation of the HCV […] NS3-NS5. The NS3 protein cleaves the HCV polyprotein to release the mature NS3, NS4A, NS4B, NS5A and NS5B proteins that are required for HCV replication. At the 3′ end of the replicon is the authentic 3′ NTR of HCV. The activity of the LUC reporter is directly proportional to HCV replication levels and positive-control antiviral compounds produce a reproducible antiviral response using the LUC endpoint.
The compounds were dissolved in DMSO at five half-log concentrations each, ranging from either 0.03 to 3 μM or 1 to 100 μM. Subconfluent cultures of the ET line were plated out into 96 well plates dedicated for the analysis of cell numbers (cytotoxicity) or antiviral activity and the next day the compounds were added to the appropriate wells. […] Compound EC50 and EC90 values were derived from HCV RNA levels assessed as HCV RNA replicon derived LUC activity. Cytotoxicity was expressed as IC50 and IC90, the concentration of compound that inhibited cell viability by 50% and 90%, respectively. Compound IC50 and IC90 values were calculated using a colorimetric assay as an indication of cell numbers and cytotoxicity. The activity of the LUC reporter is directly proportional to HCV RNA levels in the human cell line. The HCV-replicon assay was validated in parallel experiments using interferon-alpha-2b as a positive control. Cyclosporine was also tested by way of comparison.

[2] = biological target: cyclophilin D (Homo sapiens, UniProt P30405); assay: Cyclophilin binding competitive ELISA (cyclophilin D); details: human recombinant cyclophilin, read-out: EC50, concentration required to achieve 50% inhibition, against cyclophilin D
Protocol: (§1) The cyclophilin inhibition binding of compounds disclosed herein is determined using a competitive ELISA adapted from the methods described by Quesniaux et al. (Eur. J. Immunol., 1987, 17:1359-1365). Activated ester of succinyl spacers bound to D-Lys^8-cyclosporine A (D-Lys^8-Cs) are coupled to bovine serum albumin (BSA) through D-lysyl residue in position 8. BSA is dissolved in 0.1 M borate buffer, pH 9.0 (4 mg in 1.4 ml). A hundredfold molar excess of D-Lys^8-Cs dissolved in dimethyl formamide (0.6 ml) is added drop wise to the BSA under vigorous stirring.
(§2) Microtiter Plates are coated with D-Lys^8-Cs-BSA conjugate (2 μg/ml in PBS for 24 hours at 4° C.). Plates are washed with Tween®/PBS and with PBS alone. To block nonspecific binding, 2% BSA/PBS (pH 7.4) is added to the wells and allowed to incubate for 2 hours at 37° C. […] Cyclophilin is detected with anti-cyclophilin rabbit antiserum diluted in 1% BSA containing PBS and incubates overnight at 4° C. […] Bound rabbit antibodies are then detected by goat anti-rabbit IgG conjugated to alkaline phosphatase diluted in 1% BSA-PBS and allowed to incubate for 2 hours at 37° C. […] After incubation with 4-nitrophenyl phosphate (1 g/l in diethanolamine buffer, pH 9.8) for 1 to 2 hours at 37° C., the enzymatic reaction is measured spectrophotometrically at 405 nm using a spectrophotometer. […]

[3] = biological target: cyclophilin B (Homo sapiens, UniProt P23284); assay: Cyclophilin binding competitive ELISA (cyclophilin B); details: human recombinant cyclophilin, read-out: EC50, concentration required to achieve 50% inhibition, against cyclophilin B
Protocol: as §1, §2

[4] = biological target: cyclophilin A (Homo sapiens, UniProt P62937); assay: Cyclophilin binding competitive ELISA (cyclophilin A); details: human recombinant cyclophilin, read-out: EC50, concentration required to achieve 50% inhibition, against cyclophilin A
Protocol: as §1, §2

Sequence of cyclophilin D (P30405 30-207): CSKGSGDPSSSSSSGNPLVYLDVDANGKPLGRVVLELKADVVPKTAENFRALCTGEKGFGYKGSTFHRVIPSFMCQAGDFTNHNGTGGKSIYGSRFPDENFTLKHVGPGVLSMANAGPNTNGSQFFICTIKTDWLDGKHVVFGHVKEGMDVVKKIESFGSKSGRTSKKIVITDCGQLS
Sequence of cyclophilin A (P62937 whole entry): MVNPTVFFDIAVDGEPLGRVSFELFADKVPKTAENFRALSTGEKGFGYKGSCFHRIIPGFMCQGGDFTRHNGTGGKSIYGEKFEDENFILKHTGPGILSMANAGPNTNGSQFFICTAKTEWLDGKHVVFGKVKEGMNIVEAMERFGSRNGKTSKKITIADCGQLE
Sequence of cyclophilin B (P23284 34-216): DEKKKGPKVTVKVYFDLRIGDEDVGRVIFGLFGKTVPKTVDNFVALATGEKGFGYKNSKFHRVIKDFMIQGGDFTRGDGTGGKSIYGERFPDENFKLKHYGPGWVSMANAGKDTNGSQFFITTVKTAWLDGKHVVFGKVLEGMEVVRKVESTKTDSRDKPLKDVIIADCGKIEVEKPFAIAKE

SMILES | EC50 [1] [nM] | other results
CC=CCC(C)C(O)C1C(=O)NC(CC)C(=O)N(C)C(SCCC)C(=O)N(C)C(CC(C)C)C(=O)N(Cc2ccccc2)C(C(C)C)C(=O)N(C)C(CC(C)C)C(=O)NC(C)C(=O)NC(C)C(=O)N(C)C(CC(C)C)C(=O)N(C)C(CC(C)C)C(=O)N(C)C(C(C)C)C(=O)N1C (centres unmarked) [Compound 5, [n-Propylthio-Sar]^3-(N-benzyl)-Val^5-cyclosporine A] | > 1000 | EC50 [2]: > 600 nM; EC50 [3]: > 600 nM; EC50 [4]: > 600 nM
CC=CCC(C)C(O)C1C(=O)NC(CC)C(=O)N(C)C(SCCN(C)C)C(=O)N(C)C(CC(C)C)C(=O)N(Cc2ccccc2)C(C(C)C)C(=O)N(C)C(CC(C)C)C(=O)NC(C)C(=O)NC(C)C(=O)N(C)C(CC(C)C)C(=O)N(C)C(CC(C)C)C(=O)N(C)C(C(C)C)C(=O)N1C [Compound 1, [(R)-2-(N,N-Dimethylamino)ethylthio-Sar]^3-(N-benzyl)-Val^5-cyclosporine A] | < 1000 | –
C/C=C/C[C@@H](C)[C@@H](O)[C@H]1C(=O)N[C@@H](CC)C(=O)N(C)C(SC)C(=O)N(C)[C@@H](CC(C)C)C(=O)N(Cc2ccccc2)[C@@H](C(C)C)C(=O)N(C)[C@@H](CC(C)C)C(=O)N[C@@H](C)C(=O)N[C@H](C)C(=O)N(C)[C@@H](CC(C)C)C(=O)N(C)[C@@H](CC(C)C)C(=O)N(C)[C@@H](C(C)C)C(=O)N1C (some centres unmarked) [Compound 4, [Methylthio-Sar]^3-(N-benzyl)-Val^5-cyclosporine A] | < 1000 | EC50 [2]: > 600 nM
CC=CCC(C)C(O)C1C(=O)NC(CC)C(=O)N(C)C(OC)C(=O)N(C)C(CC(C)C)C(=O)N(CC=CC)C(C(C)C)C(=O)N(C)C(CC(C)C)C(=O)NC(C)C(=O)NC(C)C(=O)N(C)C(CC(C)C)C(=O)N(C)C(CC(C)C)C(=O)N(C)C(C(C)C)C(=O)N1C (centres unmarked) [Compound 9, [Methoxy-Sar]^3-(N-but-2-enyl)-Val^5-cyclosporine A] | < 1000 | –
CC=CCC(C)C(O)C1C(=O)NC(CC)C(=O)N(C)C(OC)C(=O)N(C)C(CC(C)C)C(=O)N(Cc2cccc(C(F)(F)F)c2)C(C(C)C)C(=O)N(C)C(CC(C)C)C(=O)NC(C)C(=O)NC(C)C(=O)N(C)C(CC(C)C)C(=O)N(C)C(CC(C)C)C(=O)N(C)C(C(C)C)C(=O)N1C (centres unmarked) [Compound 7, [Methoxy-Sar]^3-(3-trifluoromethylbenzyl)-Val^5-cyclosporine A] | < 1000 | –
C=CCN1C(=O)C(CC(C)C)N(C)C(=O)C(OC)N(C)C(=O)C(CC)NC(=O)C(C(O)C(C)CC=CC)N(C)C(=O)C(C(C)C)N(C)C(=O)C(CC(C)C)N(C)C(=O)C(CC(C)C)N(C)C(=O)C(C)NC(=O)C(C)NC(=O)C(CC(C)C)N(C)C(=O)C1C(C)C (centres unmarked) [Compound 8, [Methoxy-Sar]^3-(N-allyl)-Val^5-cyclosporine A] | < 1000 | –
CC=CCC(C)C(O)C1C(=O)NC(CC)C(=O)N(C)C(OC)C(=O)N(C)C(CC(C)C)C(=O)N(CC=CCOCc2ccccc2)C(C(C)C)C(=O)N(C)C(CC(C)C)C(=O)NC(C)C(=O)NC(C)C(=O)N(C)C(CC(C)C)C(=O)N(C)C(CC(C)C)C(=O)N(C)C(C(C)C)C(=O)N1C (stereo not drawn) [Compound 11, [Methoxy-Sar]^3-N-(trans-4-benzyloxy-but-2-enyl)-Val^5-cyclosporine A] | < 1000 | –
CC=CCC(C)C(O)C1C(=O)NC(CC)C(=O)N(C)C(OC)C(=O)N(C)C(CC(C)C)C(=O)N(Cc2ccccc2)C(C(C)C)C(=O)N(C)C(CC(C)C)C(=O)NC(C)C(=O)NC(C)C(=O)N(C)C(CC(C)C)C(=O)N(C)C(CC(C)C)C(=O)N(C)C(C(C)C)C(=O)N1C (centres unmarked) [Compound 6, [Methoxy-Sar]^3-(N-benzyl)-Val^5-cyclosporine A] | < 1000 | –
CC=CCC(C)C(O)C1C(=O)NC(CC)C(=O)N(C)C(OC)C(=O)N(C)C(CC(C)C)C(=O)N(CC=CCO)C(C(C)C)C(=O)N(C)C(CC(C)C)C(=O)NC(C)C(=O)NC(C)C(=O)N(C)C(CC(C)C)C(=O)N(C)C(CC(C)C)C(=O)N(C)C(C(C)C)C(=O)N1C (stereo not drawn) [Compound 15, [Methoxy-Sar]^3-N-[trans-4-hydroxy-but-2-enyl]-Val^5-cyclosporine A] | < 1000 | –
CC=CCC(C)C(O)C1C(=O)NC(CC)C(=O)N(C)C(OC)C(=O)N(C)C(CC(C)C)C(=O)N(CC=CCN(C)C)C(C(C)C)C(=O)N(C)C(CC(C)C)C(=O)NC(C)C(=O)NC(C)C(=O)N(C)C(CC(C)C)C(=O)N(C)C(CC(C)C)C(=O)N(C)C(C(C)C)C(=O)N1C (stereo not drawn) [Compound 17, [Methoxy-Sar]^3-N-[trans-4-dimethylamino-but-2-enyl]-Val^5-cyclosporine A] | < 1000 | –
CC=CCC(C)C(O)C1C(=O)NC(CC)C(=O)N(C)C(OC)C(=O)N(C)C(CC(C)C)C(=O)N(CC=C(C)C)C(C(C)C)C(=O)N(C)C(CC(C)C)C(=O)NC(C)C(=O)NC(C)C(=O)N(C)C(CC(C)C)C(=O)N(C)C(CC(C)C)C(=O)N(C)C(C(C)C)C(=O)N1C (centres unmarked) [Compound 10, [Methoxy-Sar]^3-(N-3-methyl-but-2-enyl)-Val^5-cyclosporine A] | < 1000 | –
CC=CCC(C)C(O)C1C(=O)NC(CC)C(=O)N(C)C(SC)C(=O)N(C)C(CC(C)C)C(=O)N(CC=CCN(C)C)C(C(C)C)C(=O)N(C)C(CC(C)C)C(=O)NC(C)C(=O)NC(C)C(=O)N(C)C(CC(C)C)C(=O)N(C)C(CC(C)C)C(=O)N(C)C(C(C)C)C(=O)N1C (stereo not drawn) [Compound 16, [Methylthio-Sar]^3-N-[trans-4-dimethylamino-but-2-enyl]-Val^5-cyclosporine A] | < 1000 | –
CC=CCC(C)C(O)C1C(=O)NC(CC)C(=O)N(C)C(SC)C(=O)N(C)C(CC(C)C)C(=O)N(CC=CCO)C(C(C)C)C(=O)N(C)C(CC(C)C)C(=O)NC(C)C(=O)NC(C)C(=O)N(C)C(CC(C)C)C(=O)N(C)C(CC(C)C)C(=O)N(C)C(C(C)C)C(=O)N1C (stereo not drawn) [Compound 14, [Methylthio-Sar]^3-N-[trans-4-hydroxy-but-2-enyl]-Val^5-cyclosporine A] | < 1000 | –
